Here are results for 1 molecule from patent US10179914B2, “CDC25A inhibitor for the treatment of drug resistant cancer or for the prevention of tumor relapse” (INSERM (INSTITUT NATIONAL DE LA SANTÉ ET DE LA RECHERCHE …, priority 2014, dated 2019).

A short description of series [1]: Preliminary toxicity assays in NSG mice. The class given is in vivo. From the text: In vivo experiments. Animals were used in accordance to a protocol reviewed and approved by the Institutional Animal Care and User Ethical Committee of the UMS006 and Region Midi-Pyrénées (Approval#13-U1037-JES08). NOD/LtSz-scid IL-2Rγchainnull (NSG) mice (Sanchez P V et al) were produced at the Genotoul Anexplo platform in Toulouse (France) using breeders obtained from The Charles River Laboratory. Mice were housed in sterile conditions using HEPA filtered micro-isolators and fed with irradiated food and acidified water. Transplanted mice were treated with antibiotics (enrofloxacin) for the duration of the experiment. […] Adult mice (6 or 7-week old) were treated with 20 mg/kg Busulfan (Busilvex, Pierre Fabre, France) by i.p. administration 24 hours before injection of leukemic cells. Cultured MOLM-14 cells were washed in PBS and cleared of aggregates and debris using a 0.2 mm cell filter, and suspended in PBS at a final concentration of 2 million cells per 200 μL of PBS per mouse for i.v. injection. IRC-083864 (5 mg/kg/week) was then administrated to leukemic mice by i.p. injection. Daily monitoring of mice for symptoms of disease (ruffled coat, hunched back, weakness and reduced motility) determined the time of animal euthanasia. Cell differentiation was monitored after two IRC-083864 injections: mice were humanely killed in accordance with IACUC protocols. […]

For the next series, the system named is FLT3-ITD cells. The experiment in a line: Cell death and cell cycle phase at antiproliferative concentrations. Format: cell-based, human. As to conditions: at concentrations inhibiting cell proliferation. As for the experimental part: Flow cytometry. Apoptotic cells were detected with Annexin V-FITC detection kit from BD Pharmingen (San Diego, Calif., USA) according to the manufacturer instructions. To evaluate AML cell differentiation, cells were stained for 30 min with the following anti-human monoclonal antibodies: CD11b-PE (Beckman Coulter), CD14-FITC (BD Biosciences), CD15-APC (BD Biosciences). For patient samples, additional hCD45-APC-H7 (BD Biosciences), Annexin V-Pacific Blue (BioLegend, San Diego, Calif., USA) and 7-AAD (Sigma) were used; and for bone marrow mice cells, additional CD33-FITC, CD44-PE Cy7, mCD45-PerCP Cy 5.5, CD14-Alexa 700 were used. Data were collected on a LSRII or a LSRFortessa cytometer (BD Biosciences), and analyzed with FlowJo software. A minimum of 10,000 events was collected.

The subject of series [2] is HL-60 cells (FLT3 wild type). In words: Cell proliferation, trypan blue counting, HL-60. The class given is cell-based, human. How it is done: (§1) (a) MV4-11 and MOLM-14 FLT3-ITD positive cells, KG1, HL-60 and TF-1 FLT3 wild type cells, and K562 FLT3 negative cells were cultured in the presence of the CDC25 inhibitor IRC-083864 (200 nM). Cells were harvested each day and counted after trypan blue coloration. The graph represents three independent experiments.
Cell lines and reagents. Human acute myeloid leukemia cell lines MOLM-14 (Matsuo Y et al, Leukemia 1997) (kindly provided by Martin Carroll, University of Pennsylvania, Philadelphia, Pa., USA) MV4-11, K562 (ACC-102 and ACC-10, DSMZ, Braunschweig, Germany) and FLT3-ITD-expressing murine BaF3 cells were cultured in RPMI 1640 medium (Gibco, Life Technologies, Carlsbad, Calif., USA) supplemented with 10% fetal bovine serum (Sigma, Saint Louis, Calif., USA). TF-1 (ATCC-CRL2003) cells were cultured in RPMI 1640 medium with 10% fetal bovine serum and GM-CSF 2 ng/ml. Concerning MOLM-14 cell line, the presence of a monoallelic 21 bp FLT3-ITD mutation and of an MLL-containing ins(11; 9)(q23;p22p23) were verified (Hematology laboratory of Toulouse University Hospital, Prof E. Delabesse and Dr I. Luquet). KG1 and HL-60 (ACC-14 and ACC-3, DSMZ) cell lines were grown in Iscove's Modified Dulbecco's Medium (IMDM, Gibco) plus 20% FBS. All cells were grown in the presence of 100 units/ml of penicillin and streptomycin (Invitrogen) at 37° C. and 5% CO2.

A further series concerns Mia-Paca-2 tumors. As to conditions: intravenous and oral routes; cited from earlier work.
Series [3] concerns MOLM-14 cells (FLT3-ITD positive). The experiment in a line: Cell proliferation, trypan blue counting, MOLM-14. Format: cell-based, human. The note with it: 200 nM. As for the experimental part: Cells were harvested each day and counted after trypan blue staining. The graphs represent three independent experiments.
Cell lines and reagents. […] Concerning MOLM-14 cell line, the presence of a monoallelic 21 bp FLT3-ITD mutation and of an MLL-containing ins(11; 9)(q23;p22p23) were verified (Hematology laboratory of Toulouse University Hospital, Prof E. Delabesse and Dr I. Luquet). KG1 and HL-60 (ACC-14 and ACC-3, DSMZ) cell lines were grown in Iscove's Modified Dulbecco's Medium (IMDM, Gibco) plus 20% FBS. All cells were grown in the presence of 100 units/ml of penicillin and streptomycin (Invitrogen) at 37° C. and 5% CO2.
siRNA. The MV4-11 cell line was transfected with the Amaxa nucleofection technology (Lonza, Koeln, Germany). […] Twenty-four or forty-eight hours after transfection, cells were counted (trypan blue staining), and western blotting was performed.

Series [4] has as its system human cell lines (tumor cell proliferation). The note with it: compared with BN82685; cited from earlier work.
The next series has as its target Cdc25C (Homo sapiens, UniProt P30307). As to conditions: cited from earlier work.
Series [5] has as its system MV4-11 cells (FLT3-ITD positive). In words: Cell proliferation, trypan blue counting, MV4-11. The class given is cell-based, human. The note with it: 200 nM. As for the experimental part: as §1
(b) MOLM-14 and MV4-11 cells were transfected with CDC25A siRNA for 24 hours, and cells were counted after trypan blue coloration (upper panel). The efficiency of CDC25A siRNA was estimated by western blot analysis (lower panel). ns: non specific.
Cell lines and reagents. Human acute myeloid leukemia cell lines MOLM-14 (Matsuo Y et al, Leukemia 1997) (kindly provided by Martin Carroll, University of Pennsylvania, Philadelphia, Pa., USA) MV4-11, K562 (ACC-102 and ACC-10, DSMZ, Braunschweig, Germany) and FLT3-ITD-expressing murine BaF3 cells were cultured in RPMI 1640 medium (Gibco, Life Technologies, Carlsbad, Calif., USA) supplemented with 10% fetal bovine serum (Sigma, Saint Louis, Calif., USA). TF-1 (ATCC-CRL2003) cells were cultured in RPMI 1640 medium with 10% fetal bovine serum and GM-CSF 2 ng/ml. […]
siRNA. […] Twenty-four or forty-eight hours after transfection, cells were counted (trypan blue staining), and western blotting was performed.

Sequence of Cdc25C (P30307 whole entry): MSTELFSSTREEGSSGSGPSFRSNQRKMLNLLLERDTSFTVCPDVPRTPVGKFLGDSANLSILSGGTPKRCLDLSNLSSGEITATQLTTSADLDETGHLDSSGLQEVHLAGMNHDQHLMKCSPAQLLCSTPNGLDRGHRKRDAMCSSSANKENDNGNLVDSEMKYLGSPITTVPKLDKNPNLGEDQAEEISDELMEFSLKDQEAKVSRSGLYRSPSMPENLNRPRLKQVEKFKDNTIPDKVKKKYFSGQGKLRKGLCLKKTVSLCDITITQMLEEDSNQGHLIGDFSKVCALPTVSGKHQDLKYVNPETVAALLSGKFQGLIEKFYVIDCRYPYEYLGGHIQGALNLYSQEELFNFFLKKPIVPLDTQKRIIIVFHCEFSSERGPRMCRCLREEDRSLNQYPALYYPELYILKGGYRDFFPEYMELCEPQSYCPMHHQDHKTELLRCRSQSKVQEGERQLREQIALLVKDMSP

With `Cc1nc2c(s1)C(=O)C=C(NCCCN(C)CCCNC1=CC(=O)c3nc(-c4cc(F)ccc4F)oc3C1=O)C2=O` [IRC-083864], in series [1], the “toxicity in male versus female NSG mice” value is “higher toxicity”. Besides, in the series on FLT3-ITD cells, the “accumulation in a phase of the cell cycle” value is given as “nor accumulation in a particular phase of the cell cycle” and the cell death entry was “did not induce neither significant cell death”. In series [2] (200 nM), the “proliferation of HL-60” value is “did not decrease”. Further, the “proliferation of HL60 upon stimulation by FLT3 ligand” value in series [2] (FLT3 ligand stimulation) is listed as “had no effect”. In addition, the “growth of human Mia Paca-2 xenografts” value in the series on Mia-Paca-2 tumors is on record as “reduces the growth”. In series [3], the “proliferation of MOLM-14” value is listed as “robust inhibition”. Besides, the “potency of tumor cell proliferation inhibition” value in series [4] is reported as “equivalent to that of BN82685”. The “IC50 Cdc25 enzyme type C” value on Cdc25C is reported as “nanomolar range”. The “proliferation of MV4-11” value in series [5] was “robust inhibition”.
